In PubChem BioAssay AID2060623 (Molecular Pharmacology Branch, DTP, NCI, 2025):
Values joined by “and” are separate entries in the source; they are usually repeats but may differ in a detail not shown here. Equal entries are not always repeated.

Tested on: 227483-062-R1-J1-PDC complex spheroids with HUVEC/MSC, viability
Assay: Anticancer human tumor 227483-062-R1-J1-PDC patient-derived pancreatic carcinoma cell line growth inhibition [CLK]
Conditions: for viability, T/C: stronger effect = lower value
Procedure, shortened: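 Multi-cell-type spheroids combined patient-derived tumor cells with HUVEC endothelial cells and human mesenchymal stem cells. Paired agents were dosed in half-log steps down from about clinical Cmax, or from 10 microM where Cmax was unknown.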

[1] = curve of first compound, second compound 0.0316 µM
[2] = curve of first compound, second compound 0.1 µM
[3] = curve of first compound, second compound 0.316 µM
[4] = curve of first compound, second compound 1 µM
[5] = curve of first compound, second compound 3.16 µM
[6] = curve of first compound, second compound 10 µM
[7] = second compound 0.0316 µM, first compound 0.0316 µM
[8] = second compound 0.0316 µM, first compound 0.1 µM
[9] = second compound 0.0316 µM, first compound 0.316 µM
[10] = second compound 0.0316 µM, first compound 1 µM
[11] = second compound 0.0316 µM, first compound 3.16 µM
[12] = second compound 0.0316 µM, first compound 10 µM
[13] = second compound 0.1 µM, first compound 0.0316 µM
[14] = second compound 0.1 µM, first compound 0.1 µM
[15] = second compound 0.1 µM, first compound 0.316 µM
[16] = second compound 0.1 µM, first compound 1 µM
[17] = second compound 0.1 µM, first compound 3.16 µM
[18] = second compound 0.1 µM, first compound 10 µM
[19] = second compound 0.316 µM, first compound 0.0316 µM
[20] = second compound 0.316 µM, first compound 0.1 µM
[21] = second compound 0.316 µM, first compound 0.316 µM
[22] = second compound 0.316 µM, first compound 1 µM
[23] = second compound 0.316 µM, first compound 3.16 µM
[24] = second compound 0.316 µM, first compound 10 µM
[25] = second compound 1 µM, first compound 0.0316 µM
[26] = second compound 1 µM, first compound 0.1 µM
[27] = second compound 1 µM, first compound 0.316 µM
[28] = second compound 1 µM, first compound 1 µM
[29] = second compound 1 µM, first compound 3.16 µM
[30] = second compound 1 µM, first compound 10 µM
[31] = second compound 3.16 µM, first compound 0.0316 µM
[32] = second compound 3.16 µM, first compound 0.1 µM
[33] = second compound 3.16 µM, first compound 0.316 µM
[34] = second compound 3.16 µM, first compound 1 µM
[35] = second compound 3.16 µM, first compound 3.16 µM
[36] = second compound 3.16 µM, first compound 10 µM
[37] = second compound 10 µM, first compound 0.0316 µM
[38] = second compound 10 µM, first compound 0.1 µM
[39] = second compound 10 µM, first compound 0.316 µM
[40] = second compound 10 µM, first compound 1 µM
[41] = second compound 10 µM, first compound 3.16 µM
[42] = second compound 10 µM, first compound 10 µM
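Note: spheroids exposed to compounds for seven days before readout.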
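Throughout, for viability, T/C: percent of DMSO vehicle control luminescence as 100% viability.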

CCc1c2c(nc3ccc(O)cc13)-c1cc3c(c(=O)n1C2)COC(=O)[C@]3(O)CC
viability, T/C (compound 0.00316 µM): 77.7% and 88.3%
viability, T/C (compound 0.01 µM): 94.4% and 86.2%
viability, T/C (compound 0.0316 µM): 79.4% and 58.8%
viability, T/C (compound 0.1 µM): 55.3% and 49%
viability, T/C (compound 0.316 µM): 54.1% and 53%
viability, T/C (compound 1 µM): 36.8% and 33.1%
IC50 (curve of compound): 207 nM and 71.7 nM

CCCS(=O)(=O)Nc1ccc(F)c(C(=O)c2c[nH]c3ncc(-c4ccc(Cl)cc4)cc23)c1F + CN1CCN(c2cc(C(=O)Nc3cc4cc(-c5cnn(C)c5)ccc4cn3)ccn2)CC1
IC50 [1]: > 10000 nM
IC50 [2]: 5270 nM
IC50 [3]: < 31.6 nM
IC50 [4]: < 31.6 nM
IC50 [5]: < 31.6 nM
IC50 [6]: < 31.6 nM
viability, T/C [7]: 115%
viability, T/C [8]: 98%
viability, T/C [9]: 92.6%
viability, T/C [10]: 111%
viability, T/C [11]: 113%
viability, T/C [12]: 98.8%
viability, T/C [13]: 59.5%
viability, T/C [14]: 63.6%
viability, T/C [15]: 62.2%
viability, T/C [16]: 95.5%
viability, T/C [17]: 57.5%
viability, T/C [18]: 32.8%
viability, T/C [19]: 5.7%
viability, T/C [20]: 6.53%
viability, T/C [21]: 5.51%
viability, T/C [22]: 4.08%
viability, T/C [23]: 8.45%
viability, T/C [24]: 5.43%
viability, T/C [25]: 4.51%
viability, T/C [26]: 1.83%
viability, T/C [27]: 3.28%
viability, T/C [28]: 1.8%
viability, T/C [29]: 2.28%
viability, T/C [30]: 2.25%
viability, T/C [31]: 3.73%
viability, T/C [32]: 4.36%
viability, T/C [33]: 3.99%
viability, T/C [34]: 4.7%
viability, T/C [35]: 5.81%
viability, T/C [36]: 4.4%
viability, T/C [37]: 4.02%
viability, T/C [38]: 2.72%
viability, T/C [39]: 2.7%
viability, T/C [40]: 3.39%
viability, T/C [41]: 3.28%
viability, T/C [42]: 2.76%

CC(Nc1ccc2c(c1)OCCn1cc(N3C(=O)OCC3C(F)F)nc1-2)C(N)=O (stereo not drawn)
viability, T/C (compound 0.0316 µM): 89.1% and 95.7%
viability, T/C (compound 0.1 µM): 104% and 89.6%
viability, T/C (compound 0.316 µM): 82.3% and 76.5%
viability, T/C (compound 1 µM): 82.4% and 85.9%
viability, T/C (compound 3.16 µM): 69.8% and 72.3%
viability, T/C (compound 10 µM): 82.9% and 69.1%
IC50 (curve of compound): > 10000 nM

O=c1[nH]cc(F)c(=O)[nH]1 + CNC(=O)c1ccc(Nc2nc(OC3CCCC3)c3c(-c4ccc5nc(C)oc5c4)c[nH]c3n2)c(OC)c1
IC50 [1]: 1740 nM
IC50 [2]: 1020 nM
IC50 [3]: 931 nM
IC50 [4]: 320 nM
IC50 [5]: < 31.6 nM
IC50 [6]: < 31.6 nM
viability, T/C [7]: 94.6%
viability, T/C [8]: 88.3%
viability, T/C [9]: 108%
viability, T/C [10]: 62.9%
viability, T/C [11]: 41%
viability, T/C [12]: 31.2%
viability, T/C [13]: 104%
viability, T/C [14]: 93.8%
viability, T/C [15]: 73.8%
viability, T/C [16]: 50.1%
viability, T/C [17]: 38.4%
viability, T/C [18]: 36%
viability, T/C [19]: 71.4%
viability, T/C [20]: 91.7%
viability, T/C [21]: 66.5%
viability, T/C [22]: 47.5%
viability, T/C [23]: 37.1%
viability, T/C [24]: 24.5%
viability, T/C [25]: 80.6%
viability, T/C [26]: 56.2%
viability, T/C [27]: 60.5%
viability, T/C [28]: 32.5%
viability, T/C [29]: 22.4%
viability, T/C [30]: 18.7%
viability, T/C [31]: 46.7%
viability, T/C [32]: 46.9%
viability, T/C [33]: 41.2%
viability, T/C [34]: 26.4%
viability, T/C [35]: 18.1%
viability, T/C [36]: 13.8%
viability, T/C [37]: 44.8%
viability, T/C [38]: 39%
viability, T/C [39]: 33.1%
viability, T/C [40]: 23.5%
viability, T/C [41]: 18.9%
viability, T/C [42]: 14.6%

COC1C=CCC(C)C(C)S(=O)(=O)NC(=O)c2ccc3c(c2)N(CC2CCC21)CC1(CCCc2cc(Cl)ccc21)CO3 (stereo not drawn) + CNC(=O)c1ccc(Nc2nc(OC3CCCC3)c3c(-c4ccc5nc(C)oc5c4)c[nH]c3n2)c(OC)c1
IC50 [1]: 6020 nM
IC50 [2]: 3740 nM
IC50 [3]: 897 nM
IC50 [4]: 207 nM
IC50 [5]: 46.2 nM
IC50 [6]: < 31.6 nM
viability, T/C [7]: 84%
viability, T/C [8]: 94.8%
viability, T/C [9]: 106%
viability, T/C [10]: 81.1%
viability, T/C [11]: 88.3%
viability, T/C [12]: 20.1%
viability, T/C [13]: 78.6%
viability, T/C [14]: 88.7%
viability, T/C [15]: 77.4%
viability, T/C [16]: 64.7%
viability, T/C [17]: 59.7%
viability, T/C [18]: 17.8%
viability, T/C [19]: 94%
viability, T/C [20]: 76.3%
viability, T/C [21]: 76.6%
viability, T/C [22]: 43.2%
viability, T/C [23]: 30%
viability, T/C [24]: 14.6%
viability, T/C [25]: 75%
viability, T/C [26]: 58.7%
viability, T/C [27]: 45.9%
viability, T/C [28]: 28%
viability, T/C [29]: 16.7%
viability, T/C [30]: 10.8%
viability, T/C [31]: 54%
viability, T/C [32]: 41.2%
viability, T/C [33]: 33%
viability, T/C [34]: 17.7%
viability, T/C [35]: 9.9%
viability, T/C [36]: 8.25%
viability, T/C [37]: 38.7%
viability, T/C [38]: 34.4%
viability, T/C [39]: 25.8%
viability, T/C [40]: 14.4%
viability, T/C [41]: 9.05%
viability, T/C [42]: 9.22%

CCN1CCN(Cc2ccc(Nc3ncc(F)c(-c4cc(F)c5nc(C)n(C(C)C)c5c4)n3)nc2)CC1 + CNC(=O)c1ccc(Nc2nc(OC3CCCC3)c3c(-c4ccc5nc(C)oc5c4)c[nH]c3n2)c(OC)c1
IC50 [1]: > 1000 nM
IC50 [2]: > 1000 nM
IC50 [3]: > 1000 nM
IC50 [4]: > 1000 nM
IC50 [5]: 577 nM
IC50 [6]: > 1000 nM
viability, T/C (second compound 0.0316 µM, first compound 0.00316 µM): 103%
viability, T/C (second compound 0.0316 µM, first compound 0.01 µM): 89.3%
viability, T/C [7]: 86.9%
viability, T/C [8]: 82.1%
viability, T/C [9]: 79.3%
viability, T/C [10]: 81.8%
viability, T/C (second compound 0.1 µM, first compound 0.00316 µM): 103%
viability, T/C (second compound 0.1 µM, first compound 0.01 µM): 115%
viability, T/C [13]: 95.3%
viability, T/C [14]: 103%
viability, T/C [15]: 76.9%
viability, T/C [16]: 79%
viability, T/C (second compound 0.316 µM, first compound 0.00316 µM): 86.3%
viability, T/C (second compound 0.316 µM, first compound 0.01 µM): 94.2%
viability, T/C [19]: 88.8%
viability, T/C [20]: 74%
viability, T/C [21]: 70.7%
viability, T/C [22]: 67.9%
viability, T/C (second compound 1 µM, first compound 0.00316 µM): 75.4%
viability, T/C (second compound 1 µM, first compound 0.01 µM): 72.4%
viability, T/C [25]: 64.4%
viability, T/C [26]: 75.1%
viability, T/C [27]: 60.6%
viability, T/C [28]: 53.1%
viability, T/C (second compound 3.16 µM, first compound 0.00316 µM): 65%
viability, T/C (second compound 3.16 µM, first compound 0.01 µM): 64.7%
viability, T/C [31]: 61.7%
viability, T/C [32]: 57.4%
viability, T/C [33]: 60.8%
viability, T/C [34]: 41.4%
viability, T/C (second compound 10 µM, first compound 0.00316 µM): 41.9%
viability, T/C (second compound 10 µM, first compound 0.01 µM): 56.5%
viability, T/C [37]: 60.4%
viability, T/C [38]: 74.6%
viability, T/C [39]: 65.2%
viability, T/C [40]: 37.1%

CC(=O)O[C@H]1C(=O)[C@@]2(C)[C@H]([C@H](OC(=O)c3ccccc3)[C@]3(O)C[C@H](OC(=O)[C@H](O)[C@@H](NC(=O)c4ccccc4)c4ccccc4)C(C)=C1C3(C)C)[C@]1(OC(C)=O)CO[C@@H]1C[C@@H]2O
viability, T/C (compound 0.0316 µM): 37.1% and 25.6%
viability, T/C (compound 0.1 µM): 28.5% and 24%
viability, T/C (compound 0.316 µM): 28.2% and 29.5%
viability, T/C (compound 1 µM): 37.5% and 31.8%
viability, T/C (compound 3.16 µM): 50.2% and 38.9%
viability, T/C (compound 10 µM): 60.8% and 52.3%
IC50 (curve of compound): < 31.6 nM

COc1c(OCCCN2CCOCC2)ccc2c3n(c(=NC(=O)c4cnc(N)nc4)nc12)CCN3
viability, T/C (compound 0.00316 µM): 92.4% and 100%
viability, T/C (compound 0.01 µM): 90.7% and 83.8%
viability, T/C (compound 0.0316 µM): 85% and 72.6%
viability, T/C (compound 0.1 µM): 56.2% and 75.9%
viability, T/C (compound 0.316 µM): 55.8% and 59.5%
viability, T/C (compound 1 µM): 45.3% and 40.5%
IC50 (curve of compound): > 1000 nM and 575 nM

COC1C=CCC(C)C(C)S(=O)(=O)NC(=O)c2ccc3c(c2)N(CC2CCC21)CC1(CCCc2cc(Cl)ccc21)CO3 (stereo not drawn)
viability, T/C (compound 0.0316 µM): 93.6% and 86.3%
viability, T/C (compound 0.1 µM): 93.9% and 81.1%
viability, T/C (compound 0.316 µM): 95.4% and 95.6%
viability, T/C (compound 1 µM): 106% and 91.1%
viability, T/C (compound 3.16 µM): 97.3% and 83.1%
viability, T/C (compound 10 µM): 25.9% and 22.8%
IC50 (curve of compound): 6770 nM and 5960 nM
